Among the data in ChEMBL document CHEMBL4828772, “Imidazo[1,2-b]pyridazines as IL-17A Inhibitors for Treating Psoriasis, Rheumatoid Arthritis, and Multiple Sclerosis” (ACS Med Chem Lett, 2021) are IC50 values, retold here.

pIC50: −log10 of the molar value.

The nature of the experiment: Inhibition of C-terminal Avi/His-tagged IL-17A (1 to 155 residues) (unknown origin) expressed in baculovirus infected insect cells binding with FLAG-tagged/Thrombin cleavage site fused IL-17RA (1 to317 residues) N206D/N256D mutant (unknown origin) expressed in baculovirus infected insect cells measured after 2 hrs by AlphaLISA method. More on the design: species or system Homo sapiens. (Bead proximity is the source of the signal in Alpha formats.)
Regarding `COC[C@H](c1cnn2cc([C@@H](NC(=O)c3nonc3C(F)F)C3CCC(F)(F)CC3)nc2c1)N1C[C@@H](C(F)(F)F)NC1=O`, the pIC50 (commonly the IC50 on a negative log10 scale, so that one unit is a factor of ten) was above 8.02.
With `COC[C@H](c1cnn2cc([C@@H](NC(=O)c3nonc3C(F)(F)F)C3CCC(F)(F)CC3)nc2c1)N1C[C@@H](C(F)(F)F)NC1=O`, the pIC50 was above 8.02.
As for `CC(C)c1nonc1C(=O)N[C@H](c1cn2ncc(CN3C[C@@H](C(F)(F)F)NC3=O)cc2n1)C1CCC(F)(F)CC1`, the figure is above 8.02.
Consider `O=C(N[C@H](c1cn2ncc(CN3C[C@@H](C(F)(F)F)NC3=O)cc2n1)C1CCC(F)(F)CC1)c1nonc1C(F)(F)F`, for which the negative-log IC50 (pIC50) was above 8.02.
With `COC[C@H](c1cnn2cc([C@@H](NC(=O)c3conc3C3CC3)C3CCC(F)(F)CC3)nc2c1)N1C[C@@H](C(F)(F)F)NC1=O`, the pIC50 was above 8.02.
As for `O=C(N[C@H](c1cn2ncc(CN3C[C@@H](C(F)(F)F)NC3=O)cc2n1)C1CCC(F)(F)CC1)c1nonc1C1CC1`, the figure is above 8.02.
